Results as given in patent US9833497B2, “Human originated EGF domain proteins and use of the same” (CHENGDU SOURCEBIO LIMITED-LIABILITY COMPANY, priority 2013, dated 2017).

Tests used:
Format in all cases: cell-based
Enterobacter cloacae = assay: MIC against Gram-negative bacteria: Enterobacter cloacae; settings: 10 h cultivation at 37° C., 5×10^5 CFU/mL, two-fold serial dilution
How it was run: (§1)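 Read-out is absence of bacterial growth, with MIC set at the lowest recombinant protein concentration achieving it. Bacteria, pre-grown in LB to McFarland 0.5 and resuspended, were exposed at 5×10^5 CFU/mL to two-fold diluted human EGF domain proteins in triplicate at 37° C, 175 rpm.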

Proteus vulgaris = assay: MIC against Gram-negative bacteria: Proteus vulgaris; settings: 10 h cultivation at 37° C., 5×10^5 CFU/mL, two-fold serial dilution
How it was run: as §1

Citrobacter diversus = assay: MIC against Gram-negative bacteria: Citrobacter diversus; settings: 10 h cultivation at 37° C., 5×10^5 CFU/mL, two-fold serial dilution
How it was run: as §1

Serratia marcescens = assay: MIC against Gram-negative bacteria: Serratia marcescens; settings: 10 h cultivation at 37° C., 5×10^5 CFU/mL, two-fold serial dilution
How it was run: as §1

E. coli DH5α = assay: Antibacterial activity: MIC and growth curve against E. coli DH5α in 96-well plate; settings: minimal inhibitory concentration against E. coli DH5α; 96-well plate, 5×10^5 CFU/mL, 37° C., judged after 8 h
How it was run: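 Log-phase DH5α (OD600 about 0.5, 37° C, 185 rpm in LB) was pelleted, resuspended in fresh LB and seeded at 5×10^5 CFU/mL with recombinant protein at 50, 25 and 12.5 μg/mL (two-fold series), in triplicate. Plates were shaken at 175 rpm, 37° C, and OD600 was read every 30 min. MIC was the lowest concentration with no growth.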

Pseudomonas aeruginosa = assay: MIC against Gram-negative bacteria: Pseudomonas aeruginosa; settings: 10 h cultivation at 37° C., 5×10^5 CFU/mL, two-fold serial dilution
How it was run: as §1

Proteus mirabilis = assay: MIC against Gram-negative bacteria: Proteus mirabilis; settings: 10 h cultivation at 37° C., 5×10^5 CFU/mL, two-fold serial dilution
How it was run: as §1

Aeromonas hydrophila = assay: MIC against Gram-negative bacteria: Aeromonas hydrophila; settings: 10 h cultivation at 37° C., 5×10^5 CFU/mL, two-fold serial dilution
How it was run: as §1

E. coli BL21 = assay: MIC against Gram-negative bacteria: E. coli BL21; settings: 10 h cultivation at 37° C., 5×10^5 CFU/mL, two-fold serial dilution
How it was run: as §1

Moraxella catarrhalis = assay: MIC against Gram-negative bacteria: Moraxella catarrhalis; settings: 10 h cultivation at 37° C., 5×10^5 CFU/mL, two-fold serial dilution
How it was run: as §1

Klebsiella pneumonia = assay: MIC against Gram-negative bacteria: Klebsiella pneumonia; settings: 10 h cultivation at 37° C., 5×10^5 CFU/mL, two-fold serial dilution
How it was run: as §1

Row | Substance | MIC E. cloacae (Enterobacter cloacae) [µg/mL] | MIC P. vulgaris (Proteus vulgaris) [µg/mL] | MIC C. diversus (Citrobacter diversus) [µg/mL] | MIC S. marcescens (Serratia marcescens) [µg/mL] | MIC (E. coli DH5α) [µg/mL] | MIC P. aeruginosa (Pseudomonas aeruginosa) [µg/mL] | MIC P. mirabilis (Proteus mirabilis) [µg/mL] | MIC A. hydrophila (Aeromonas hydrophila) [µg/mL] | MIC E. coli BL21 (E. coli BL21) [µg/mL] | MIC M. catarrhalis (Moraxella catarrhalis) [µg/mL] | MIC K. pneumonia (Klebsiella pneumonia) [µg/mL]
1 | PRT1163 (SVNSCAVNPCLHNGECVADNTSRGYHCRCPPSWQGDDCS; listed as Homo sapiens) | 12.5 | 12.5 | 12.5 | 25 | 12.5 | 12.5 | 12.5 | 12.5 | 25 | 12.5 | 25
2 | PRT1165 (NRAICRQGCSPKHGSCKLPGDCRCQYGWQGLYCD; listed as Homo sapiens) | 50 | 25 | 12.5 | 12.5 | 50 | 12.5 | 50 | 25 | 25 | 25 | 25
3 | PRT1166 (DTPEGVRYISSNVCGPHGKCKSQSGGKFTCDCNKGFTGTYCH; listed as Homo sapiens) | 25 | 50 | 12.5 | 12.5 | 50 | 25 | 12.5 | 25 | 12.5 | 50 | 50
4 | PRT1167 (NINDCESNPCRNGGTCIDGVNSYKCICSDGWEGAYCE; listed as Homo sapiens) | 50 | 25 | 12.5 | 12.5 | 50 | 12.5 | 50 | 25 | 25 | 25 | 25
5 | PRT1168 (NINDCSQNPCHNGGTCRDLVNDFYCDCKNGWKGKTCH; listed as Homo sapiens) | 12.5 | 50 | 12.5 | 12.5 | 25 | 25 | 12.5 | 50 | 12.5 | 50 | 50
6 | PRT1169 (RDSQCDEATCNNGGTCYDEGDAFKCMCPGGWEGTTCN; listed as Homo sapiens) | 12.5 | 12.5 | 50 | 12.5 | 50 | 50 | 12.5 | 12.5 | 25 | 12.5 | 25
7 | PRT1170 (RNSSCLPNPCHNGGTCVVNGESFTCVCKEGWEGPICA; listed as Homo sapiens) | 100 | 12.5 | 12.5 | 25 | 25 | 25 | 12.5 | 50 | 12.5 | 50 | 12.5
8 | PRT1171 (NTNDCSPHPCYNSGTCVDGDNWYRCECAPGFAGPDCR; listed as Homo sapiens) | 12.5 | 50 | 12.5 | 25 | 12.5 | 25 | 12.5 | 12.5 | 12.5 | 50 | 12.5
9 | PRT1173 (KCIPHPGCVHGICNEPWQCLCETNWGGQLCD; listed as Homo sapiens) | 12.5 | 12.5 | 50 | 50 | 12.5 | 12.5 | 50 | 12.5 | 25 | 12.5 | 25
10 | PRT1174 (DLNYCGTHQPCLNGGTCSNTGPDKYQCSCPEGYSGPNCE; listed as Homo sapiens) | 12.5 | 25 | 12.5 | 50 | 12.5 | 12.5 | 12.5 | 50 | 50 | 50 | 50
11 | PRT1175 (AEHACLSDPCHNRGSCKETSLGFECECSPGWTGPTCS; listed as Homo sapiens) | 12.5 | 50 | 25 | 25 | 12.5 | 50 | 25 | 50 | 25 | 12.5 | 25
12 | PRT1176 (NIDDCSPNNCSHGGTCQDLVNGFKCVCPPQWTGKTCQ; listed as Homo sapiens) | 12.5 | 25 | 50 | 12.5 | 12.5 | 12.5 | 50 | 25 | 50 | 12.5 | 50
13 | PRT1177 (DANECEAKPCVNAKSCKNLIASYYCDCLPGWMGQNCD; listed as Homo sapiens) | 50 | 12.5 | 50 | 25 | 50 | 50 | 50 | 12.5 | 12.5 | 12.5 | 12.5
14 | PRT1179 (DIDECASNPCLNGGHCQNEINRFQCLCPTGFSGNLCQ; listed as Homo sapiens) | 50 | 25 | 12.5 | 12.5 | 12.5 | 25 | 50 | 25 | 50 | 25 | 12.5
15 | PRT1180 (DIDYCEPNPCQNGAQCYNRASDYFCKCPEDYEGKNCS; listed as Homo sapiens) | 12.5 | 50 | 25 | 25 | 50 | 50 | 25 | 50 | 12.5 | 12.5 | 25
16 | PRT1181 (KEAVCKQGCNLLHGGCTVPGECRCSYGWQGRFCD; listed as Homo sapiens) | 25 | 50 | 12.5 | 25 | 12.5 | 12.5 | 100 | 25 | 50 | 50 | 50
17 | PRT1183 (NIDDCLGQPCRNGGTCIDEVDAFRCFCPSGWEGELCD; listed as Homo sapiens) | 50 | 25 | 12.5 | 12.5 | 25 | 25 | 50 | 25 | 50 | 25 | 12.5
18 | PRT1184 (NPNDCLPDPCHSRGRCYDLVNDFYCACDDGWKGKTCH; listed as Homo sapiens) | 50 | 12.5 | 25 | 25 | 50 | 12.5 | 25 | 12.5 | 25 | 50 | 25
